# Measurements reported in publication PMC6479601, “Salicylate and Procyanidin-Rich Stem Extracts of Gaultheria procumbens L. Inhibit Pro-Inflammatory Enzymes and Suppress Pro-Inflammatory and Pro-Oxidant Functions of Human Neutrophils Ex Vivo” (International Journal of Molecular Sciences, 2019).
# Legend:
# [1] = biological target: T1, LOX (lipoxygenase); assay: lipoxygenase inhibition assay (Matczak et al.); assay type: biochemical; conditions: eight-point curve; read-out: LOX / IC50 (mg GAE/mL; mM) ^b
# T1 construct: gene LOX1.1
# Source text: lipoxygenase inhibition assay (Matczak et al.) on LOX (lipoxygenase)
# [2] = biological target: T2, HYAL (hyaluronidase); assay: hyaluronidase inhibition assay (Matczak et al.); assay type: biochemical; conditions: eight-point curve; read-out: HYAL / IC50 (μg GAE/mL; μM) ^b
# T2 construct: gene SPAM1
# Source text: hyaluronidase inhibition assay (Matczak et al.) on HYAL (hyaluronidase)
SMILES,IC50 [1],IC50 [2]
C[C@@H]1C[C@H]2[C@@H]3CCC4=CC(=O)C=C[C@]4(C)[C@@]3(F)[C@@H](O)C[C@]2(C)[C@@]1(O)C(=O)CO [DEX],0.3 ± 0.02 mM,36.1 ± 2.68 µM
COc1ccc2c(c1)c(CC(=O)O)c(C)n2C(=O)c1ccc(Cl)cc1 [IND],0.26 ± 0.01 mM,35.7 ± 5.34 µM
"O=c1c(O)c(-c2ccc(O)c(O)c2)oc2cc(O)cc(O)c12 [compound 39, QU]",0.3 ± 0.02 mM,102 ± 6.09 µM

# Second part, the molecule after the results:
IC50 [1],IC50 [2],SMILES
0.29 ± 0.03 mM,37.4 ± 1.78 µM,Oc1cc(O)c2c(c1)O[C@H](c1ccc(O)c(O)c1)[C@H](O)[C@H]2c1c(O)cc(O)c2c1O[C@H](c1ccc(O)c(O)c1)[C@H](O)C2 [PB2]
1.26 ± 0.04 mM,64 ± 2.87 µM,"COC(=O)c1ccccc1O[C@@H]1O[C@H](CO[C@@H]2OC[C@@H](O)[C@H](O)[C@H]2O)[C@@H](O)[C@H](O)[C@H]1O [compound 18, methyl salicylate 2-O-(6′-O-β-D-xylopyranosyl)-β-D-glucopyranoside]"
